Assay results taken from patent US20230339981A1, “KRAS G12D MODULATING COMPOUNDS” (priority 2022, published 2023).

Legend:
GDP-loaded KRAS G12D = GDP-loaded KRAS G12D (Homo sapiens (Human), UniProt P01116, G12D); test: KRAS G12D (GDP) biochemical assay (TR-FRET probe displacement); format: binding; details: 2 hours
Summary of the method: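 Compound pre-incubated 30 min with GDP-loaded KRAS G12D in 50 mM Hepes pH 7.4, 150 mM NaCl, 5 mM MgCl2, 0.005% Tween-20, then Eu-streptavidin and TR-FRET probe added. After 2 h at room temperature, TR-FRET ratio read; IC50 is 50% ratio decrease, sigmoidal fit.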

GP2D (KRAS G12D) cells = test: 2D cell viability assay (CellTiter-Glo); format: cell-based; details: GP2d, 96 h, 4 days
Summary of the method: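 GP2D (KRAS G12D) cells, 1000/well in RPMI + 10% FBS, were plated onto compound (1:3 DMSO series) and grown 4 days at 37 °C, 5% CO2 in 2D. CellTiter-Glo luminescence was read; EC50 is the concentration giving 50% signal decrease, from sigmoidal fit.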

Chain of GDP-loaded KRAS G12D (P01116-2 other isoform, or with tags, fused parts or gaps G12D): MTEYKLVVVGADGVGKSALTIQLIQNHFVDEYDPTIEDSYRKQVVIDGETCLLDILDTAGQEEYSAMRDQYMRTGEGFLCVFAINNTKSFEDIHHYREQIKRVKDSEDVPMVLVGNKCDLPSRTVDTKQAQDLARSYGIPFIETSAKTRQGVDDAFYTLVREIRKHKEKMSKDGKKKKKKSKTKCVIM

In the case of `C#Cc1c(F)ccc2cc(O)cc(-c3nc4c5c(nc(OCC6(CN7CC[C@@H](C(F)(F)F)C7)CC6)nc5c3F)N3C[C@H]5CC[C@H](N5)[C@H]3CC4)c12` [Example 70, 5-ethynyl-6-fluoro-4-((5aR,6S,9R)-1-fluoro-12-((1-(((R)-3-(trifluoromethyl)pyrrolidin-1-yl)methyl)cyclopropyl)methoxy)-4,5,5a,6,7,8,9,10-octahydro-3,10a,11,13,14-pentaaza-6,9-methanonaphtho[1,8-ab]heptalen-2-yl)naphthalen-2-ol], the IC50 (GDP-loaded KRAS G12D) is reported as 0.1 nM and the EC50 (GP2D (KRAS G12D) cells) is reported as 1 nM.

`C#Cc1c(F)ccc2cc(O)cc(-c3nc4c5c(nc(OC[C@@]67CCCN6C[C@H](F)C7)nc5c3F)N3C[C@H]5CC[C@H](N5)[C@H]3[C@H](C3CC3)O4)c12` [Example 71, 4-((5S,5aS,6S,9R)-5-cyclopropyl-1-fluoro-12-(((2R,7aS)-2-fluorotetrahydro-1H-pyrrolizin-7a(5H)-yl)methoxy)-5a,6,7,8,9,10-hexahydro-5H-4-oxa-3,10a,11,13,14-pentaaza-6,9-methanonaphtho[1,8-ab]heptalen-2-yl)-5-ethynyl-6-fluoronaphthalen-2-ol] showed an IC50 (GDP-loaded KRAS G12D) of 4 nM and an EC50 (GP2D (KRAS G12D) cells) of 81 nM.

Work on `Fc1ccc(-c2nc3c4c(nc(OC[C@@]56CCCN5C[C@H](F)C6)nc4c2F)N2C[C@H]4CC[C@H](N4)[C@H]2CO3)c2ccccc12` [Example 72, (5aS,6S,9R)-1-fluoro-2-(4-fluoronaphthalen-1-yl)-12-(((2R,7aS)-2-fluorotetrahydro-1H-pyrrolizin-7a(5H)-yl)methoxy)-5a,6,7,8,9,10-hexahydro-5H-4-oxa-3,10a,11,13,14-pentaaza-6,9-methanonaphtho[1,8-ab]heptalene] yielded an IC50 (GDP-loaded KRAS G12D) of 510 nM and an EC50 (GP2D (KRAS G12D) cells) of over 1000 nM.

`C#Cc1c(F)ccc2cc(O)cc(-c3nc4c5c(nc(OC[C@@]67CCCN6C[C@H](F)C7)nc5c3F)N3C[C@H]5CC[C@H](N5)[C@@H]3CCO4)c12` [Example 77, 5-ethynyl-6-fluoro-4-((6aS,7S,10R)-1-fluoro-13-(((2R,7aS)-2-fluorotetrahydro-1H-pyrrolizin-7a(5H)-yl)methoxy)-5,6,6a,7,8,9,10,11-octahydro-4-oxa-3,11a,12,14,15-pentaaza-7,10-methanocyclohepta[4,5]cycloocta[1,2,3-de]naphthalen-2-yl)naphthalen-2-ol] showed an IC50 (GDP-loaded KRAS G12D) of 6 nM and an EC50 (GP2D (KRAS G12D) cells) of 83 nM.

For `C#Cc1c(F)ccc2cc(O)cc(-c3nc4c5c(nc(OC[C@@]67CCCN6C[C@H](F)C7)nc5c3F)N3C[C@H]5CC[C@H](N5)[C@@H]3[C@H](C)C4)c12` [Example 79, 5-ethynyl-6-fluoro-4-((5R,5aS,6S,9R)-1-fluoro-12-(((2R,7aS)-2-fluorotetrahydro-1H-pyrrolizin-7a(5H)-yl)methoxy)-5-methyl-4,5,5a,6,7,8,9,10-octahydro-3,10a,11,13,14-pentaaza-6,9-methanonaphtho[1,8-ab]heptalen-2-yl)naphthalen-2-ol], the IC50 (GDP-loaded KRAS G12D) was 7 nM and the EC50 (GP2D (KRAS G12D) cells) was 15.3 nM.

Compound `C#Cc1c(F)ccc2cc(O)cc(-c3nc4c5c(nc(OC[C@@]67CCCN6C[C@H](F)C7)nc5c3F)N3C[C@H]5CC[C@H](N5)[C@H]3[C@@H](C(F)F)O4)c12` [Example 82, 4-((5S,5aS,6S,9R)-5-(difluoromethyl)-1-fluoro-12-(((2R,7aS)-2-fluorotetrahydro-1H-pyrrolizin-7a(5H)-yl)methoxy)-5a,6,7,8,9,10-hexahydro-5H-4-oxa-3,10a,11,13,14-pentaaza-6,9-methanonaphtho[1,8-ab]heptalen-2-yl)-5-ethynyl-6-fluoronaphthalen-2-ol] has an IC50 (GDP-loaded KRAS G12D) of 11.4 nM and an EC50 (GP2D (KRAS G12D) cells) of 104 nM.

With `C#Cc1c(F)ccc2cccc(-c3nc4c5c(nc(OC[C@@]67CCCN6[C@H](COC(C(F)(F)F)(C(F)(F)F)C(F)(F)F)CC7)nc5c3F)N3C[C@H]5CC[C@H](N5)[C@@H]3[C@@H](C)C4)c12` [Example 83, (5S,5aS,6S,9R)-2-(8-ethynyl-7-fluoronaphthalen-1-yl)-1-fluoro-12-(((3S,7aS)-3-(((1,1,1,3,3,3-hexafluoro-2-(trifluoromethyl)propan-2-yl)oxy)methyl)tetrahydro-1H-pyrrolizin-7a(5H)-yl)methoxy)-5-methyl-4,5,5a,6,7,8,9,10-octahydro-3,10a,11,13,14-pentaaza-6,9-methanonaphtho[1,8-ab]heptalene] the IC50 (GDP-loaded KRAS G12D) was 3.2 nM and the EC50 (GP2D (KRAS G12D) cells) was 67.4 nM.

`C#Cc1c(F)ccc2cccc(-c3nc4c5c(nc(OC[C@@]67CCCN6C[C@H](F)C7)nc5c3F)N3C[C@H]5CC[C@H](N5)[C@@H]3[C@@H](C)C4)c12` [Example 84, (5S,5aS,6S,9R)-2-(8-ethynyl-7-fluoronaphthalen-1-yl)-1-fluoro-12-(((2R,7aS)-2-fluorotetrahydro-1H-pyrrolizin-7a(5H)-yl)methoxy)-5-methyl-4,5,5a,6,7,8,9,10-octahydro-3,10a,11,13,14-pentaaza-6,9-methanonaphtho[1,8-ab]heptalene] gave an IC50 (GDP-loaded KRAS G12D) of 3.9 nM and an EC50 (GP2D (KRAS G12D) cells) of 27.7 nM.

With `C#Cc1c(F)ccc2cccc(-c3nc4c5c(nc(OC[C@@]67CCCN6C[C@@]6(CC6(F)F)C7)nc5c3F)N3C[C@H]5CC[C@H](N5)[C@@H]3[C@@H](C)C4)c12` [Example 85, (5S,5aS,6S,9R)-12-(((1S,7a'S)-2,2-difluorodihydro-1′H,3′H-spiro[cyclopropane-1,2′-pyrrolizin]-7a′(5′H)-yl)methoxy)-2-(8-ethynyl-7-fluoronaphthalen-1-yl)-1-fluoro-5-methyl-4,5,5a,6,7,8,9,10-octahydro-3,10a,11,13,14-pentaaza-6,9-methanonaphtho[1,8-ab]heptalene] the IC50 (GDP-loaded KRAS G12D) was 6.8 nM and the EC50 (GP2D (KRAS G12D) cells) was 58 nM.

`C#Cc1c(F)ccc2cccc(-c3nc4c5c(nc(OCC6(CN7CCC(OC(F)(F)F)CC7)CC6)nc5c3F)N3C[C@H]5CC[C@H](N5)[C@@H]3[C@@H](C)C4)c12` [Example 88, (5S,5aS,6S,9R)-2-(8-ethynyl-7-fluoronaphthalen-1-yl)-1-fluoro-5-methyl-12-((1-((4-(trifluoromethoxy)piperidin-1-yl)methyl)cyclopropyl)methoxy)-4,5,5a,6,7,8,9,10-octahydro-3,10a,11,13,14-pentaaza-6,9-methanonaphtho[1,8-ab]heptalene] gave an IC50 (GDP-loaded KRAS G12D) of 36.5 nM and an EC50 (GP2D (KRAS G12D) cells) of 255 nM.

Compound `C#Cc1c(F)ccc2cccc(-c3nc4c5c(nc(OCC6(CN7CC[C@H](OC(F)(F)F)C7)CC6)nc5c3F)N3C[C@H]5CC[C@H](N5)[C@@H]3[C@@H](C)C4)c12` [Example 89, (5S,5aS,6S,9R)-2-(8-ethynyl-7-fluoronaphthalen-1-yl)-1-fluoro-5-methyl-12-((1-(((S)-3-(trifluoromethoxy)pyrrolidin-1-yl)methyl)cyclopropyl)methoxy)-4,5,5a,6,7,8,9,10-octahydro-3,10a,11,13,14-pentaaza-6,9-methanonaphtho[1,8-ab]heptalene] has an IC50 (GDP-loaded KRAS G12D) of 50.9 nM and an EC50 (GP2D (KRAS G12D) cells) of 379 nM.

In the case of `C#Cc1c(F)ccc2cc(O)cc(-c3nc4c5c(nc(OC[C@@]67CCCN6C[C@H](F)C7)nc5c3F)N3C[C@H]5CC[C@H](N5)[C@@H]3[C@H](CC)C4)c12` [Example 90, 4-((5R,5aS,6S,9R)-5-ethyl-1-fluoro-12-(((2R,7aS)-2-fluorotetrahydro-1H-pyrrolizin-7a(5H)-yl)methoxy)-4,5,5a,6,7,8,9,10-octahydro-3,10a,11,13,14-pentaaza-6,9-methanonaphtho[1,8-ab]heptalen-2-yl)-5-ethynyl-6-fluoronaphthalen-2-ol], the IC50 (GDP-loaded KRAS G12D) is reported as 100 nM and the EC50 (GP2D (KRAS G12D) cells) is reported as 1000 nM.

Work on `C#Cc1c(F)ccc2cccc(-c3nc4c5c(nc(OC[C@@]67CCCN6C[C@H](F)C7)nc5c3F)N3C[C@H]5CC[C@H](N5)[C@@H]3[C@@H](CC)C4)c12` [Example 91, (5S,5aS,6S,9R)-5-ethyl-2-(8-ethynyl-7-fluoronaphthalen-1-yl)-1-fluoro-12-(((2R,7aS)-2-fluorotetrahydro-1H-pyrrolizin-7a(5H)-yl)methoxy)-4,5,5a,6,7,8,9,10-octahydro-3,10a,11,13,14-pentaaza-6,9-methanonaphtho[1,8-ab]heptalene] yielded an IC50 (GDP-loaded KRAS G12D) of 100 nM and an EC50 (GP2D (KRAS G12D) cells) of 1000 nM.

`C#Cc1c(F)ccc2cccc(-c3nc4c5c(nc(OC[C@@]67CCCN6C[C@H](F)C7)nc5c3F)N3C[C@H]5CC[C@H](N5)[C@H]3CC4(F)F)c12` [Example 98, (5aR,6S,9R)-2-(8-ethynyl-7-fluoronaphthalen-1-yl)-1,4,4-trifluoro-12-(((2R,7aS)-2-fluorotetrahydro-1H-pyrrolizin-7a(5H)-yl)methoxy)-4,5,5a,6,7,8,9,10-octahydro-3,10a,11,13,14-pentaaza-6,9-methanonaphtho[1,8-ab]heptalene] was tested, and the IC50 (GDP-loaded KRAS G12D) was 12.6 nM and the EC50 (GP2D (KRAS G12D) cells) was 124 nM.

For `C#Cc1c(F)ccc2cccc(-c3nc4c5c(nc(OCC6(CN7CCC[Si](C)(C)CC7)CC6)nc5c3F)N3C[C@H]5CC[C@H](N5)[C@@H]3[C@@H](C)C4)c12` [Example 100, (5S,5aS,6S,9R)-12-((1-((4,4-dimethyl-1,4-azasilepan-1-yl)methyl)cyclopropyl)methoxy)-2-(8-ethynyl-7-fluoronanhthalen-1-yl)-1-fluoro-5-methyl-4,5,5a,6,7,8,9,10-octahydro-3,10a,11,13,14-pentaaza-6,9-methanonaphtho[1,8-ab]heptalene], the IC50 (GDP-loaded KRAS G12D) was 31.8 nM and the EC50 (GP2D (KRAS G12D) cells) was 373 nM.

`C#Cc1c(F)ccc2cccc(-c3nc4c5c(nc(OCC6(CN7CCN(CC(F)(F)F)CC7)CC6)nc5c3F)N3C[C@H]5CC[C@H](N5)[C@@H]3[C@@H](C)C4)c12` [Example 101, (5S,5aS,6S,9R)-2-(8-ethynyl-7-fluoronaphthalen-1-yl)-1-fluoro-5-methyl-12-((1-((4-(2,2,2-trifluoroethyl)piperazin-1-yl)methyl)cyclopropyl)methoxy)-4,5,5a,6,7,8,9,10-octahydro-3,10a,11,13,14-pentaaza-6,9-methanonaphtho[1,8-ab]heptalene] was tested, and the IC50 (GDP-loaded KRAS G12D) was 12.7 nM and the EC50 (GP2D (KRAS G12D) cells) was 175 nM.
